Assay results from patent US9351963B2, “Defensin-like molecules as novel antimicrobial agents” (UNIVERSITY OF MARYLAND, BALTIMORE, priority 2010, dated 2016).

Assays:
[1] = tested on: Escherichia coli ATCC 25922; assay: 96-well turbidimetric antibacterial killing assay, E. coli; format: cell-based; conditions: E. coli ATCC 25922, 120 min exposure
Protocol: The antibacterial activity of defensin mimetics against Staphylococcus aureus ATCC 29213 and Escherichia coli 25922 was carried out in a 96-well turbidimetric assay essentially as described (Ericksen, B., Wu, Z., Lu, W., and Lehrer, R. I. (2005) Antimicrob Agents Chemother 49, 269-275) with the following modifications: compounds were exposed for 30 min to […] prior to addition of […] in 10 mM phosphate buffer containing 5% DMSO. Bacterial growth was monitored for 12 hours and data were analyzed as described (Ericksen, et al). Determination of MICs was performed by Micromyx, LLC (Kalamazoo, Mich.) according to CLSI standards (CLSI. (2009) Methods for Dilution Antimicrobial Susceptibility Tests for Bacteria That Grow Aerobically; Approved Standard—Eighth Edition.)
The inventors have previously reported on the antibacterial activity of HNP1 and all of its structurally uncompromised single alanine mutants against S. aureus (Wei, G., Pazgier, M., de Leeuw, E., Rajabi, M., Li, J., Zou, G., Jung, G., Yuan, W., Lu, W. Y., Lehrer, R. I., and Lu, W. J Biol Chem 285, 16275-16285). […] If these residues are indeed important for Lipid II binding, one would expect that replacement by alanine will not affect killing of Gram-negative bacteria. […] In particular, FIG. 12 depicts killing of E. coli by HNP-1 Lipid II single alanine mutants. Survival curves of E. coli ATCC 25922 exposed to HNP-1 or HNP-1 single alanine mutants at concentrations varying two-fold from […]. Bacteria were exposed to defensin peptides for 120 min. Each curve is the mean of two separate experiments (±S.D.). Points scored as zero survival could not be plotted.

[2] = Surface Plasmon Resonance binding to immobilized 3-Lipid II (BIAcore); conditions: SPR, 10 μM, room temperature, 40 RUs 3-Lipid II
Protocol: Short-chain water-soluble Lipid II containing a lipid tail of three isoprene units was generated and purified essentially as described (Breukink, E., van Heusden, H. E., Vollmerhaus, P. J., Swiezewska, E., Brunner, L., Walker, S., Heck, A. J., and de Kruijff, B. (2003) J Biol Chem 278, 19898-19903). Typically, M. flavus vesicles (120 μmol lipid-Pi) were incubated together with 500 μmol UDP-GlcNAc, 500 μmol UDP-MurNAC-pentapeptide and 400 μmol farnesyl phosphate (3-P) in 100 mM Tris-HCl pH 8.0, 5 mM MgCl2. The incubation lasted two hours at room temperature for 3-P. The synthesis of 3-Lipid II was followed using RP-8 reversed phase TLC (Merck) developed in 75% methanol. For purification, the membranes were removed by centrifugation at 40,000×g and the supernatant was collected and loaded on a C18 HPLC column and eluted with a linear gradient from 50 mM ammonium bicarbonate to 100% methanol in 30 minutes. Farnesyl-Lipid II (3-Lipid II) eluted at approximately 60% methanol. Its identity was confirmed by mass spectroscopy.
Surface Plasmon Resonance binding experiments were carried out on a BIAcore T100 system (BIAcore Inc., Piscataway, N.Y.) at 25° C. The assay buffer was 10 mM HEPES, 150 mM NaCl, 0.05% surfactant P20, pH 7.4 (±3 mM EDTA) supplemented with 10% DMSO. […] For initial determination of binding, defensin mimetics were introduced into the flow-cells (30 μl/min) in the running buffer at 10 μM. Resonance signals were corrected for nonspecific binding by subtracting the background of the control flow-cell. After each analysis, the sensor chip surfaces were regenerated with 50 mM NaOH for 30 s at a flow rate 100 μl/min, and equilibrated with the buffer prior to next injection. For binding kinetics studies, binding isotherms were analyzed with manufacturer-supplied software for BIAcore T100.

[3] = tested on: Staphylococcus aureus ATCC 29213; conditions: previously reported (Wei et al., J Biol Chem 285); cited from earlier work

Row | Substance | Bactericidal activity against E. coli relative to wild-type HNP-1 [1] | Binding of HNP-1 single alanine mutants to Lipid II compared to wild-type HNP-1 [2] | Killing of S. aureus by HNP-1 single alanine mutants [3]
1 | Ile20: HNP-1 single alanine mutant, Ile20 replaced by alanine | comparable to the wild-type peptide | significant reduction of binding | severely compromised
2 | Leu25: HNP-1 single alanine mutant, Leu25 replaced by alanine | comparable to the wild-type peptide | significant reduction of binding | severely compromised
